Key:
Male Wistar albino rats = assay: In vivo assay on food ingestion, acute treatment; set-up: species or system Rattus Norvegicus; settings: for course of the effect on food ingestion over time (30-240 min) / reduction of food ingestion: rats fasted 24 h
Protocol: Male Wistar albino rats (Rattus Norvegicus) from Charles Rivers Laboratories España, S. A. (Barcelona, Spain), were used, having weights ranging between 300-350 g at the start of the experiments. The animals were caged individually, in controlled temperature (22° C.) and moisture (55%) conditions under a 12-hour light/dark cycle (light off from 8:00 AM to 8:00 PM). The rats had free access to food and water in their corresponding cages. All the training and experimental sessions were carried out after 8:00 PM hours.
All the drugs were prepared in fresh conditions in a solution consisting of 5% Tween-80 in sterile physiological serum. The different doses were prepared in different vials such that Tween-80 was added after weighing the necessary amount of compound. The compound, with its corresponding volume of surfactant, was sonicated and homogenized (with the aid of a magnetic stirrer) for 15-30 minutes. Then, the necessary volume of serum was added until completing the solution.
The compounds were administered intraperitoneally (i.p.) in an acute manner in an administration volume of 1 ml per kg of animal.
Before starting the ingestion experiments, the animals were habituated to being handled. For this purpose, 48-72 hours before each experimental session, the rats were placed in cages where the base material (sawdust) was removed, and small containers with food were placed in the cages for 4 hours. After this initial habituation phase, the animals were deprived of food for 24 hours, always having free access to water.
After said fasting period, the different treatment groups were established, and the base material was removed from the cages, weighing the animals and weighing the small containers with food (commercial laboratory feed). Additionally, the water container was weighed. 15 minutes after administering the compounds, the respective weighed food container was given to each animal, and it was again weighed at different times (30, 60, 120 and 240 minutes). In one case it was weighed 24 hours after being given.
Food consumption was represented as relative accumulated consumption (g of food per kg of animal). The water containers were also weighed at the end of the experiment.

[1] = target: T1, human PPAR-gamma receptor (Homo sapiens, UniProt P37231); assay: Cell transfection and luciferase reporter gene assay, PPAR-gamma activation in MCF-7 cells; format: cell-based; settings: luciferase reporter, 16 h treatment
T1 construct: expressed in transfected cells; host or cells: MCF-7 human breast cancer cells, pSG5 expression vector
T1 sequence (P37231 1-505): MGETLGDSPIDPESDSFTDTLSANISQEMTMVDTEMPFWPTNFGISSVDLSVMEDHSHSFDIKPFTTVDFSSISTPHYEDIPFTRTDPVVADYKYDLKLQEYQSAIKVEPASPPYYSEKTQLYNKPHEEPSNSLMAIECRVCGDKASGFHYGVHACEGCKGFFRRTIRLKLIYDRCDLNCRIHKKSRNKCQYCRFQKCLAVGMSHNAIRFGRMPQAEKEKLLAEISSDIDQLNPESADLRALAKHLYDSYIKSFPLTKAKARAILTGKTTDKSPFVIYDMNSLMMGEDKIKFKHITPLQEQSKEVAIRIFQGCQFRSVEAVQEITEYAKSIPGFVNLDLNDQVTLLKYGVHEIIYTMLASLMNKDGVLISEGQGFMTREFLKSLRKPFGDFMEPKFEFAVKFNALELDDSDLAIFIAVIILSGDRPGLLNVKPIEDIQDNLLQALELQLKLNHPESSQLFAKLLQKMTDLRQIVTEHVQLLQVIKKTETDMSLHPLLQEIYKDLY
Protocol: (§1) The reporter gene assay is an in vitro method used to determine and quantify the existence of physical interactions between proteins, useful for confirming in this case the interaction of the transcription factors PPAR-alpha with co-activator SRC-1, and PPAR-gamma with PPRE in MCF-7 cells.
(§2) For the in vitro experiments, with cell culture all the compounds were dissolved and diluted in dimethylsulfoxide (DMSO) (Sigma Aldrich Spain).
(§3) DNA constructs: Eukaryotic pSG5 expression vector (4100 base pairs, Stratagene Co.) was used as the cDNA expression vehicle for human PPAR-alpha receptor and PPAR-gamma receptor. This construction was used for the in vivo overexpression of the protein in mammalian cells.
(§4) Four copies of the human CPTI gene DR1-type RE (sequence […]) (Ref: Tinahones F J, Moreno-Santos I, Vendrell J, Chacon M R, Garrido-Sanchez L, Garcia-Wasntes E, and Macias-Gonzalez M. Obesity 2012, 20: 488-497) were individually fused with the thymidine kinase promoter in the pGL-2 Basic vector (5598 base pairs, Promega Co.), which lacks a eukaryotic promoter and contains a firefly (Photinus pyralis) luciferase reporter gene. This vector is widely used in the quantitative analysis of factors capable of regulating gene expression in mammalian cells. This pGL-2 Basic vector also has an ampicillin resistance region (gene for β-lactamase). […]

[2] = target: T2, human PPAR-alpha receptor (Homo sapiens, UniProt Q07869); assay: Cell transfection and luciferase reporter gene assay, PPAR-alpha activation in MCF-7 cells; format: cell-based; settings: luciferase reporter, 16 h treatment
T2 construct: expressed in transfected cells; host or cells: MCF-7 human breast cancer cells, pSG5 expression vector
T2 sequence (Q07869 whole entry): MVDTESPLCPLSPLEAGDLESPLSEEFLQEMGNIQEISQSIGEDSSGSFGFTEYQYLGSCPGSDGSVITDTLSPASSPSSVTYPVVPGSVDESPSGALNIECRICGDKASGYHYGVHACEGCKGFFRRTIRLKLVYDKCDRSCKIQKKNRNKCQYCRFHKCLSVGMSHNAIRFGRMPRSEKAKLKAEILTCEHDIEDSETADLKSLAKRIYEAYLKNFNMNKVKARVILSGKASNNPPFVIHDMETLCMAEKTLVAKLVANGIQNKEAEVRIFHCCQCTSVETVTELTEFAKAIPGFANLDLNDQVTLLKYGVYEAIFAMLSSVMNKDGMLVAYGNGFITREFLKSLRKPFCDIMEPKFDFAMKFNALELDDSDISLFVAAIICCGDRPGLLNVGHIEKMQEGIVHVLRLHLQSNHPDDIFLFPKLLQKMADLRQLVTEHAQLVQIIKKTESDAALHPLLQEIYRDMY
T2 sequence (P19793 whole entry partner): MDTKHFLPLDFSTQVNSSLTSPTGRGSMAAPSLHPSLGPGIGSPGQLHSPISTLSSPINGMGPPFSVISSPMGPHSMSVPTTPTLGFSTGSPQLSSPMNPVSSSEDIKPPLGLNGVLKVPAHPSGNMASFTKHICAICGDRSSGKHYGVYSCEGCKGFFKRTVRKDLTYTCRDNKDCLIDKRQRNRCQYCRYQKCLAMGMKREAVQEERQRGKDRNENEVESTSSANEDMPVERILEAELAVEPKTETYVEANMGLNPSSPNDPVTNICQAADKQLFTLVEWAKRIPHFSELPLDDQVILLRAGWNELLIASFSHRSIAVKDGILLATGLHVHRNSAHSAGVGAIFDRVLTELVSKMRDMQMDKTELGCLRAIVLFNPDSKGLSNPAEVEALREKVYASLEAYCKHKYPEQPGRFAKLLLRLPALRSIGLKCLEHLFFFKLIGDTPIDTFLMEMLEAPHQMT
T2 sequence (Q15788 whole entry partner): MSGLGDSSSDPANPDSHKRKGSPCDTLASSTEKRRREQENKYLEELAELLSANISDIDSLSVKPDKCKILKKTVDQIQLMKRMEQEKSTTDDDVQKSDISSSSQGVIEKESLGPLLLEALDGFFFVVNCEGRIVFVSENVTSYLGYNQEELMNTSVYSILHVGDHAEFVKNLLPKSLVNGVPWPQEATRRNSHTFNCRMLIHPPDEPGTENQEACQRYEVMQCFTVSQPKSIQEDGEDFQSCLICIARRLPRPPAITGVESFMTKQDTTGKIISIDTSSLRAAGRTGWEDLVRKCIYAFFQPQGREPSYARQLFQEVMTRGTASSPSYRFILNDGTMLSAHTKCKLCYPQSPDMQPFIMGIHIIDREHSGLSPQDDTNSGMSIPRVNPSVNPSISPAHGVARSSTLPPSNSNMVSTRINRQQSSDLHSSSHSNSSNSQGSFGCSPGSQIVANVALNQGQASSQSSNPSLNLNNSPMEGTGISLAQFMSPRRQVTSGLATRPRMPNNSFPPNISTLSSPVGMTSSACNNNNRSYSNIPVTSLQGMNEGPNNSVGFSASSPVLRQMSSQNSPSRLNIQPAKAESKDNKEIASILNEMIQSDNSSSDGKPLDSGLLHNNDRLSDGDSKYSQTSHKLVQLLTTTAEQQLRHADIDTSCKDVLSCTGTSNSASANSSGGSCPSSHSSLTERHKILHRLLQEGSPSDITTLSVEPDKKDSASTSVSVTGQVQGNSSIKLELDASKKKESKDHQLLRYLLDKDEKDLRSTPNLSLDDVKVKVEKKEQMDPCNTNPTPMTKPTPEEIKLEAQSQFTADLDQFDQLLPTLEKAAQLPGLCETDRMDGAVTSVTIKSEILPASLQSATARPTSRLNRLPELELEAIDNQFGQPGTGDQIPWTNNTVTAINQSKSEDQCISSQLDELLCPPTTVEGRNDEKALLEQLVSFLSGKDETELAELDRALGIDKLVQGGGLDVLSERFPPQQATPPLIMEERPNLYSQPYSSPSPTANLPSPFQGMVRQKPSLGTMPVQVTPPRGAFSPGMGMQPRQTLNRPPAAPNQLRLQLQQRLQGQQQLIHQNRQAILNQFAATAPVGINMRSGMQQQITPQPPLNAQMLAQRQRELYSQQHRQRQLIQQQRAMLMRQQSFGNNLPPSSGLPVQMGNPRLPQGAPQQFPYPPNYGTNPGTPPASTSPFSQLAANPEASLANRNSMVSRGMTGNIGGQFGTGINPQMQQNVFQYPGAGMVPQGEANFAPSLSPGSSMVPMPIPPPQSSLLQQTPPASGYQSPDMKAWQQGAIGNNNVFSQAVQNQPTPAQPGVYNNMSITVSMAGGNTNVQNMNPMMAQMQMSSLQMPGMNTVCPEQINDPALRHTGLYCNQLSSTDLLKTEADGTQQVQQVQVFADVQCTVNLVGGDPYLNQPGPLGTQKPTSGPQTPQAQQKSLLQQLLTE
Protocol: as §1, §2, §3, §4

| Structure (SMILES) | course of the effect on food ingestion over time (30-240 min) (Male Wistar albino rats; acute i.p. administration) | reduction of food ingestion (Male Wistar albino rats; effective dose 3.0 mg/kg i.p., FIG. 1) | EC50 [1] [µM] | EC50 [2] [µM] | effect on accumulated food ingestion 24 hours after administration (Male Wistar albino rats; 24 h after i.p. administration, FIG. 3) | dose dependence of the effect on food ingestion (Male Wistar albino rats; acute i.p. administration, FIG. 2) | reduction of food ingestion (Male Wistar albino rats; effective dose 1.0 mg/kg i.p., FIG. 2) |
| --- | --- | --- | --- | --- | --- | --- | --- |
| CC(C)(C)c1ccc(CNC(=O)c2ccc(NC(=O)c3cccc(CN4C(=O)OC[C@H]4Cc4ccccc4)c3)cc2)cc1 [Compound 1, (R)-3-((4-benzyl-2-oxooxazolidin-3-yl)methyl)-N-(4-((4-(tert-butyl)benzyl)carbamoyl)phenyl)benzamide] | effect disappearing 240 minutes after the administration | about 50% | 1.29 | 0.67 ± 0.157 |  |  |  |
| CCCCCNC(=O)c1ccc(NC(=O)c2cccc(CN3C(=O)OC[C@H]3Cc3ccccc3)c2)cc1 [Compound 5, (R)-3-((4-benzyl-2-oxooxazolidin-3-yl)methyl)-N-(4-(pentylcarbamoyl)phenyl)benzamide] | effect maintained over time after 240 minutes |  | 1.62 | 0.821 ± 0.139 | still has an effect 24 hours after administration | active in a dose-dependent manner | about 50% |

— US20160152579A1, “OXAZOLIDINONE DERIVATIVES AS PPAR LIGANDS” (CONSEJO SUPERIOR DE INVESTIGACIONES CIENTÍFICAS (CSIC), priority 2013, published 2016)
